Results published in patent US10544151B2, “Compounds and uses thereof” (Kala Pharmaceuticals, Inc., priority 2013, dated 2020).

Columns and labels:
[1] = Physical and chemical stability of I-2 solutions at room temperature; format: physicochemical; conditions: F127 (0.5%), 20 mM Tris (pH 8)
Description: Solutions of I-2 were formulated with F127 or Tween 80, and under a range of pH values. Briefly, I-2 was first completely solubilized using an acidic solution (0.1 N HCl) at a high concentration of ˜5% (wiv). The final formulation was diluted to a solution consisting of 0.5% (wiv) I-2 into buffered solution containing F127 or Tween 80 as described in Table 5. Following dilution, the pH of the formulations was measured using pH indicator strips (PEHANON) and confirmed to be within expected range (±0.5 units of target pH).
Physical and chemical stability of the solutions at room temperature (20-25° C.) were assessed after 7-10 days (tfinal). Physical instability in a solution can manifest as the precipitation and sedimentation of the drug of interest and excipients over time. To assess physical stability, the formulations at tfinal were first filtered through a 300 kDa modified polyethersulfone filter membrane (Nanosep) to remove any precipitate in the solution. The concentration of I-2 in the filtrates was then measured and compared to that at t=0. The purity of I-2 in the unfiltered solution was also evaluated at tfinal, to further confirm chemical stability. This parameter is defined by the area under the signal peak that is attributed to compound I-2 as a percentage of all peaks reported by in the sample by HPLC (% peak area).

[2] = Draize-Ocular Irritation assessment; format: in vivo, Dutch-belted rabbits; conditions: topical I-2 solution formulations, during PK studies

Compound: Cc1cc(C(=O)Nc2cc(Oc3ccc4nc(NC(=O)CN5CC[C@H](N(C)C)C5)cn4n3)ccc2C)n(C)n1 [Compound I-2]
- physical stability of solution [1]: major physical instability
- Draize-Ocular Irritation [2]: no irritation
